Among the data in US9296741B2, “Bromodomain inhibitors” (priority 2012, dated 2016) are half-life, Ki and EC50 values, retold here.

The nature of series [1]: Human liver microsome stability assay. The series is classed as in vitro ADME. The following applies: both sexes, human, microsomes, pH 7.4. A general note: Liver microsomes are vesicles of endoplasmic reticulum, rich in cytochrome P450 enzymes.
Series [2] concerns the target human BRD4 second bromodomain (BDII_E352-M457) (Homo sapiens (Human), UniProt O60885). Briefly: TR-FRET bromodomain binding assay, BRD4 second bromodomain.
Series [3] is described as follows: Mouse liver microsome stability assay. Format: in vitro ADME. The following applies: male, CD1, mouse, microsomes, pH 7.4.
The target in series [4] is human BRD4 first bromodomain (BDI_K57-E168) (Homo sapiens (Human), UniProt O60885). Briefly: TR-FRET bromodomain binding assay, BRD4 first bromodomain. In general terms: Time-resolved FRET reads energy transfer from a long-lived donor to a nearby acceptor.
Series [5] can be described thus: Rat liver microsome stability assay. The settings on record: rat liver microsomes (male Sprague-Dawley), 0.5 μM test compound, 0.25 mg/mL microsomal protein, pH 7.4, 37° C.; read-out: Stability in rat liver microsomes (t1/2 in minutes). The series is classed as in vitro ADME.
For series [6], the system named is breast cancer cell line MX-1. Briefly: MX-1 cell line proliferation assay. The series is classed as cell-based, human. The settings on record: Homo sapiens, MX1, 72 h; MX-1 cells, 3-day proliferation, Cell Titer Glo; read-out: Cellular proliferation: EC50.

In general, Ki refers to the equilibrium dissociation constant of an inhibitor or competing ligand from its target. A higher Ki goes with a looser hold on the target.

`CCS(=O)(=O)C(C)(C)c1ccc(Oc2ccc(F)cc2F)c(-c2cn(C)c(=O)c3[nH]ccc23)c1` [Example 298, 4-{2-(2,4-difluorophenoxy)-5-[2-(ethylsulfonyl)propan-2-yl]phenyl}-6-methyl-1,6-dihydro-7H-pyrrolo[2,3-c]pyridin-7-one]: the half-life at 0.5 μM was found to be 9 min in series [1], 3 min in series [3] and 47 min in series [5]. Further, the Ki is 3.1 nM in series [2] and 2.9 nM in series [4]. Also, the EC50 in series [6] worked out at 6.1 nM.
As for `CCS(=O)(=O)c1ccc(OC2CCN(C(=O)OC(C)(C)C)CC2)c(-c2cn(C)c(=O)c3[nH]ccc23)c1` [Example 312, tert-butyl 4-[4-(ethylsulfonyl)-2-(6-methyl-7-oxo-6,7-dihydro-1H-pyrrolo[2,3-c]pyridin-4-yl)phenoxy]piperidine-1-carboxylate], the half-life at 0.5 μM in series [1] is 56 min; in series [3] it was 9 min; in series [5], 32 min. Also, the values for the Ki in series [2] and in series [4] were 19 nM and 14.1 nM, respectively. The EC50 in series [6] stood at 67.5 nM.
Turning to `Cc1ccc(S(=O)(=O)n2ccc3c(-c4cc(NS(C)(=O)=O)ccc4Oc4ccccc4)cn(C)c(=O)c32)cc1` [Example 7, N-(3-{6-methyl-1-[(4-methylphenyl)sulfonyl]-7-oxo-6,7-dihydro-1H-pyrrolo[2,3-c]pyridin-4-yl}-4-phenoxyphenyl)methanesulfonamide], the half-life at 0.5 μM in series [1] was found to be 12 min; in series [3], 4 min; in series [5], 2 min. Moreover, the Ki in series [2] was found to be 77.3 nM; in series [4] it was 119 nM. Moreover, in series [6], the EC50 was more than 3000 nM.
Turning to `CCCS(=O)(=O)Nc1ccc(Oc2c(F)cc(F)cc2F)c(-c2cn(C)c(=O)c3[nH]ccc23)c1` [Example 94, N-[3-(6-methyl-7-oxo-6,7-dihydro-1H-pyrrolo[2,3-c]pyridin-4-yl)-4-(2,4,6-trifluorophenoxy)phenyl]propane-1-sulfonamide], the half-life at 0.5 μM in series [1] is 47 min; in series [3], 25 min; in series [5], 28 min. Moreover, the Ki in series [2] stood at 10 nM; in series [4], 16.2 nM. The EC50 in series [6] worked out at 110 nM.
In the case of `Cn1cc(-c2cc(S(C)(=O)=O)ccc2Oc2ccc(F)cc2F)c2cc(COc3ccccc3)[nH]c2c1=O` [Example 292, 4-[2-(2,4-difluorophenoxy)-5-(methylsulfonyl)phenyl]-6-methyl-2-(phenoxymethyl)-1,6-dihydro-7H-pyrrolo[2,3-c]pyridin-7-one], the values for the half-life at 0.5 μM in series [1], in series [3] and in series [5] were 8 min, 12 min and 22 min, respectively. Also, the Ki came to 55.8 nM in series [2] and 53.2 nM in series [4]. Also, in series [6], the EC50 is 366 nM.
For the compound `Cn1cc(-c2cc(S(=O)(=O)Nc3ccccc3)ccc2OCC2CC2)c2cc[nH]c2c1=O` [Example 313, 4-(cyclopropylmethoxy)-3-(6-methyl-7-oxo-6,7-dihydro-1H-pyrrolo[2,3-c]pyridin-4-yl)-N-phenylbenzenesulfonamide], the results for the half-life at 0.5 μM in series [1], in series [3] and in series [5] were 5 min, 3 min and 4 min, respectively. For the same compound, the Ki in series [2] was 6.1 nM; in series [4], 15.8 nM. In series [6], the EC50 is 50.9 nM.
In the case of `COCCS(=O)(=O)Nc1ccc(Oc2ccc(F)cc2F)c(-c2cn(C)c(=O)c3[nH]ccc23)c1` [Example 236, N-[4-(2,4-difluorophenoxy)-3-(6-methyl-7-oxo-6,7-dihydro-1H-pyrrolo[2,3-c]pyridin-4-yl)phenyl]-2-methoxyethanesulfonamide], the half-life at 0.5 μM in series [1] was 33 min; in series [3], 15 min; in series [5], 32 min. Moreover, the Ki in series [2] came to 5.1 nM; in series [4], 14.5 nM. For the same compound, in series [6], the EC50 is 25 nM.
Take `Cn1cc(-c2cc(S(=O)(=O)N3CCCC3)ccc2OCC2CC2)c2cc[nH]c2c1=O` [Example 302, 4-[2-(cyclopropylmethoxy)-5-(pyrrolidin-1-ylsulfonyl)phenyl]-6-methyl-1,6-dihydro-7H-pyrrolo[2,3-c]pyridin-7-one]: the half-life at 0.5 μM in series [1] amounted to 5 min; in series [3] it was 3 min; in series [5], 4 min. Besides, the Ki turned out to be 3.5 nM in series [2] and 5.8 nM in series [4]. For the same compound, the EC50 in series [6] amounted to 16.9 nM.
With `CC(C)S(=O)(=O)c1ccc(NCC2CC2)c(-c2cn(C)c(=O)c3[nH]ccc23)c1` [Example 261, 4-{2-[(cyclopropylmethyl)amino]-5-(propan-2-ylsulfonyl)phenyl}-6-methyl-1,6-dihydro-7H-pyrrolo[2,3-c]pyridin-7-one], the half-life at 0.5 μM in series [1] turned out to be 25 min; in series [3] it was 16 min; in series [5] it was 5 min. The Ki turned out to be 1.6 nM in series [2] and 1.5 nM in series [4]. The EC50 in series [6] was found to be 7.2 nM.
Take `Cn1cc(-c2cc(S(C)(=O)=O)ccc2Oc2ccc(F)cc2F)c2cc(C(=O)NCC(F)(F)F)[nH]c2c1=O` [Example 254, 4-[2-(2,4-difluorophenoxy)-5-(methylsulfonyl)phenyl]-6-methyl-7-oxo-N-(2,2,2-trifluoroethyl)-6,7-dihydro-1H-pyrrolo[2,3-c]pyridine-2-carboxamide]: the half-life at 0.5 μM in series [1] was 74 min; in series [3] it was 91 min; in series [5] it was more than 120 min. Also, the figures for the Ki in series [2] and in series [4] were 8.7 nM and 79.6 nM, respectively. Further, the EC50 in series [6] turned out to be 75.1 nM.
On to `Cn1cc(-c2cc(S(C)(=O)=O)ccc2OC2CCC2)c2cc[nH]c2c1=O` [Example 213, 4-[2-(cyclobutyloxy)-5-(methylsulfonyl)phenyl]-6-methyl-1,6-dihydro-7H-pyrrolo[2,3-c]pyridin-7-one], for which the half-life at 0.5 μM in series [1] was found to be 79 min; in series [3], 89 min; in series [5], 38 min. Also, the values for the Ki in series [2] and in series [4] were 4.8 nM and 3.2 nM, respectively. Further, in series [6], the EC50 is 28.7 nM.
As for `Cn1cc(-c2ccc(OCC3CC3)c(-c3cn(C)c(=O)c4[nH]ccc34)c2)cn1` [Example 318, 4-[2-(cyclopropylmethoxy)-5-(1-methyl-1H-pyrazol-4-yl)phenyl]-6-methyl-1,6-dihydro-7H-pyrrolo[2,3-c]pyridin-7-one], the values for the half-life at 0.5 μM in series [1], in series [3] and in series [5] were 35 min, 13 min and 24 min, respectively. In addition, the Ki in series [2] amounted to 625 nM; in series [4], 346 nM. In series [6], the EC50 is more than 3000 nM.
For `Cn1cc(-c2cc(C(N)=O)ccc2Oc2ccc(F)cc2F)c2cc[nH]c2c1=O` [Example 50, 4-(2,4-difluorophenoxy)-3-(6-methyl-7-oxo-6,7-dihydro-1H-pyrrolo[2,3-c]pyridin-4-yl)benzamide], the figures for the half-life at 0.5 μM in series [1], in series [3] and in series [5] were 35 min, 46 min and 88 min, respectively. The Ki in series [2] was 8.1 nM; in series [4] it was 21.5 nM. In addition, in series [6], the EC50 is 206 nM.
